Measurements reported in PubChem BioAssay (NCI).
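Tested at 5 concentrations; 48 h exposure; 96-well plates; endpoints linearly interpolated, else capped at highest concentration. TGI marks complete inhibition of growth.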

What was measured:
Test in all cases: growth of human tumour cells (NCI), 48 h
SNB-19 CNS = system: SNB-19 CNS
MDA-MB-435 = system: MDA-MB-435
HS 578T breast = system: HS 578T breast
HT29 colon = system: HT29 colon
NCI-H460 lung = system: NCI-H460 lung
NCI/ADR-RES ovarian = system: NCI/ADR-RES ovarian
SF-268 CNS = system: SF-268 CNS
BT-549 breast = system: BT-549 breast
EKVX NSCLC = system: EKVX NSCLC
UO-31 renal = system: UO-31 renal
KM12 colon = system: KM12 colon
ACHN renal = system: ACHN renal
OVCAR-5 ovarian = system: OVCAR-5 ovarian
SF-539 CNS = system: SF-539 CNS
SN12C renal = system: SN12C renal
DU-145 prostate = system: DU-145 prostate
SNB-75 CNS = system: SNB-75 CNS
HCT-116 colon = system: HCT-116 colon
HOP-92 NSCLC = system: HOP-92 NSCLC
RPMI-8226 leukemia = system: RPMI-8226 leukemia
UACC-257 melanoma = system: UACC-257 melanoma
MDA-N = system: MDA-N
M14 melanoma = system: M14 melanoma
U251 CNS = system: U251 CNS
SF-295 CNS = system: SF-295 CNS
HOP-62 NSCLC = system: HOP-62 NSCLC
NCI-H23 lung = system: NCI-H23 lung
SW-620 colon = system: SW-620 colon
HCT-15 colon = system: HCT-15 colon
CAKI-1 renal = system: CAKI-1 renal
SK-MEL-2 melanoma = system: SK-MEL-2 melanoma
OVCAR-3 ovarian = system: OVCAR-3 ovarian
T-47D breast = system: T-47D breast
HL-60(TB) leukemia = system: HL-60(TB) leukemia
A498 renal = system: A498 renal
A549 NSCLC = system: A549 NSCLC
K-562 leukemia = system: K-562 leukemia
LOX IMVI melanoma = system: LOX IMVI melanoma
UACC-62 melanoma = system: UACC-62 melanoma
IGROV1 ovarian = system: IGROV1 ovarian
786-0 renal = system: 786-0 renal
NCI-H522 lung = system: NCI-H522 lung
MCF7 breast = system: MCF7 breast
RXF 393 renal = system: RXF 393 renal
OVCAR-8 ovarian = system: OVCAR-8 ovarian
TK-10 renal = system: TK-10 renal
SK-OV-3 ovarian = system: SK-OV-3 ovarian
PC-3 prostate = system: PC-3 prostate
CCRF-CEM leukemia = system: CCRF-CEM leukemia
MOLT-4 leukemia = system: MOLT-4 leukemia
HCC-2998 colon = system: HCC-2998 colon
COLO 205 colon = system: COLO 205 colon
MDA-MB-231 breast = system: MDA-MB-231 breast
SK-MEL-5 melanoma = system: SK-MEL-5 melanoma
OVCAR-4 ovarian = system: OVCAR-4 ovarian
NCI-H226 lung = system: NCI-H226 lung
MALME-3M melanoma = system: MALME-3M melanoma
SK-MEL-28 melanoma = system: SK-MEL-28 melanoma
SR leukemia = system: SR leukemia

Measured: TGI

O=c1[nH]c2ccccc2c(O)c1/C=N/C(=S)NC1CCCCC1
not listed: MALME-3M melanoma | SK-MEL-28 melanoma | SR leukemia
> 100 µM: all other assays above

CC(c1ccccc1)n1cncc1C(=O)NN1CCN(C)CC1 (stereo unspecified)
not listed: UO-31 renal | SNB-75 CNS | HOP-92 NSCLC | HCC-2998 colon
> 10 µM: all other assays above
